As usually defined, the IC50 is the concentration that gives 50% inhibition.

The values below come from patent US20250002475A1 (EPICS THERAPEUTICS, priority 2023, published 2025).

One experiment has as its system Kasumi-1 cells. The experiment can be described thus: Kasumi-1 cellular viability assay (ATP-Lite, 72 h). The class given is cell-based. The settings on record: Homo sapiens, ATP-Lite luminescence, % viability relative to DMSO. The gist of the method: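 Viability was read by ATP-Lite One Step luminescence after 72 h compound treatment at 37 °C/5% CO2, normalised to DMSO control, with IC50 fitted from concentration-response. Cells were Kasumi-1 (AML FAB M2) at 15000 per well in RPMI-1640/10% FBS, 0.1% DMSO final.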

The target of experiment [1] is T1, recombinant METTL3/METTL14 complex (Homo sapiens, UniProt Q86U44).
T1 construct: purchased Active Motif 311970; host or cells: Sf9 cells
The experiment can be described thus: METTL3/14 Scintillation Proximity Assay (SPA), RNA methyltransferase activity. It is filed as biochemical. Particulars: 5.31 nM METTL3/14 complex, 250 nM RNA substrate, 1 μM 3H-SAM, 90 min; for compounds marked * best of the two separated forms. (In general: SPA uses beads or plates that emit light when radiolabelled molecules are held near them.)

The subject of the next experiment is Caov-3 cells. The experiment can be described thus: Caov-3 cellular viability assay (ATP-Lite, 72 h). The class given is cell-based. The settings on record: Homo sapiens, ATP-Lite luminescence, % viability relative to DMSO. The gist of the method: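 IC50 values come from concentration-response fits of luminescent ATP content (ATP-Lite One Step), normalised as % viability versus DMSO. Compound exposure was 72 h at 37 °C in RPMI-1640/10% FBS with 0.1% final DMSO. Wells held 10000 cells each.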

T1 sequence (Q86U44 whole entry): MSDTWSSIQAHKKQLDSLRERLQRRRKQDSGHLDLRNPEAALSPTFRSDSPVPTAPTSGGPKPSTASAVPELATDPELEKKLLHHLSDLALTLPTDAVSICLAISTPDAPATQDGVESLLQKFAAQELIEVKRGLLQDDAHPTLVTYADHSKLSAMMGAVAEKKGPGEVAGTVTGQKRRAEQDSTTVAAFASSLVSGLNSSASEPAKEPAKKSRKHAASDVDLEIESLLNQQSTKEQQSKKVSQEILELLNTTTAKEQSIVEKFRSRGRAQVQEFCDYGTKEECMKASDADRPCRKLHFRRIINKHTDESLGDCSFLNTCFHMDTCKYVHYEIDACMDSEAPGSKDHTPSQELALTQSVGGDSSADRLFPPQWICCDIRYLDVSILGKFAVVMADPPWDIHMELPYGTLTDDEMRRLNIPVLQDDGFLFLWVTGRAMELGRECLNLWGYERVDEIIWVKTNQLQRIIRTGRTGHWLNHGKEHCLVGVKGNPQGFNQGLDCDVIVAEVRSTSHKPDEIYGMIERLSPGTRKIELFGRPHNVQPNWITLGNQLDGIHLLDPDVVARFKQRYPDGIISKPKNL
T1 sequence (Q9HCE5 whole entry partner): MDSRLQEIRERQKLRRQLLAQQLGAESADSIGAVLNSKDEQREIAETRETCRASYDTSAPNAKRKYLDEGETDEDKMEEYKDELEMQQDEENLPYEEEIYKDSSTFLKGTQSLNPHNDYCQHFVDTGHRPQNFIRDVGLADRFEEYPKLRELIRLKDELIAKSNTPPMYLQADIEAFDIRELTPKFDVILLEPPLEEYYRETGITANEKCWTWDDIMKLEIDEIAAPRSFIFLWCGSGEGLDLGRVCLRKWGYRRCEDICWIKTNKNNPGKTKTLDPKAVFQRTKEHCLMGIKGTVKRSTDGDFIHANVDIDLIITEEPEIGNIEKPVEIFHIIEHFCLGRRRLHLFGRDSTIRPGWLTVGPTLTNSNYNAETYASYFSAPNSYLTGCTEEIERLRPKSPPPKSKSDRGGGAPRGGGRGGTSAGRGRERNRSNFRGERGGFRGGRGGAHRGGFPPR

In the case of `CC(n1cc(-c2cncc(N3CC4(CCC4)C3)c2)nn1)n1ccc(N2CCC[C@@H](NCC3CCC3)C2)cc1=O` (single isomer, unassigned) [Compound 193], the IC50 in the experiment with Kasumi-1 cells is no more than 500 nM; in experiment [1], no more than 50 nM; in the experiment on Caov-3 cells, no more than 500 nM.

`CC(n1cc(-c2cccn3cncc23)nn1)n1ccc(N2CCC[C@@H](NCC3CCC3)C2)cc1=O` (single isomer, unassigned) [Compound 124]: the IC50 is greater than 5000 nM in the experiment on Kasumi-1 cells, no more than 50 nM in experiment [1] and 500 to 5000 nM with Caov-3 cells.

As to `c1ncc(C2CC2)cc1-c1cn(C2(c3ccc(N4CCC[C@@H](NCC5CC5)C4)cn3)COC2)nn1` [Compound 256, (R)-N-(cyclopropylmethyl)-1-(6-(3-(4-(5-cyclopropylpyridin-3-yl)-1H-1,2,3-triazol-1-yl)oxetan-3-yl)pyridin-3-yl)piperidin-3-amine], the IC50 in the experiment with Kasumi-1 cells is no more than 500 nM; in experiment [1], no more than 50 nM; in the experiment on Caov-3 cells it was no more than 500 nM.

In the case of `CC(c1cnn(-c2cncc(N(C)C)c2)c1)n1ccc(N2CCC[C@@H](NCC3CC3)C2)cc1=O` (stereo partly drawn) [Compound 196, 4-((R)-3-((cyclopropylmethyl)amino)piperidin-1-yl)-1-(1-(1-(5-(dimethylamino)pyridin-3-yl)-1H-pyrazol-4-yl)ethyl)pyridin-2(1H)-one], the IC50 is no more than 500 nM with Kasumi-1 cells, no more than 50 nM in experiment [1] and no more than 500 nM with Caov-3 cells.

As for `CC(c1ccc(N2CCC[C@@H](NCC3CCC3)C2)nn1)n1cnc(-c2cncc(N(C)C)c2)c1` (stereo partly drawn) [Compound 173, 5-(1-(1-(6-((R)-3-((cyclobutylmethyl)amino)piperidin-1-yl)pyridazin-3-yl)ethyl)-1H-imidazol-4-yl)-N,N-dimethylpyridin-3-amine], the values for the IC50 (with Kasumi-1 cells; in experiment [1]; with Caov-3 cells) were no more than 500 nM, no more than 50 nM and no more than 500 nM, respectively.

For `COc1cc(-c2cn(Cc3cnc(N4CCCC(NCC5CCC5)C4)cn3)nn2)c2cn[nH]c2c1` (stereo not drawn) [Compound 047, N-(cyclobutylmethyl)-1-(5-((4-(6-methoxy-1H-indazol-4-yl)-1H-1,2,3-triazol-1-yl)methyl)pyrazin-2-yl)piperidin-3-amine], the figures for the IC50 (in the experiment on Kasumi-1 cells; in experiment [1]; with Caov-3 cells) were 500 to 5000 nM, no more than 50 nM and greater than 5000 nM, respectively.

`c1cnn(-c2cncc(-c3cn(C4(c5ccc(N6CCC[C@@H](NCC7CCC7)C6)cn5)COC4)nn3)n2)c1` [Compound 289, (R)-1-(6-(3-(4-(6-(1H-pyrazol-1-yl)pyrazin-2-yl)-1H-1,2,3-triazol-1-yl)oxetan-3-yl)pyridin-3-yl)-N-(cyclobutylmethyl)piperidin-3-amine]: the IC50 is no more than 500 nM in the experiment with Kasumi-1 cells, no more than 50 nM in experiment [1] and no more than 500 nM with Caov-3 cells.

For `CN(C)c1cncc(-c2cn(C3(c4ccc(N5CCC[C@@H](NCC6CCC6)C5)cc4)COC3)nn2)c1` [Compound 148, (R)-5-(1-(3-(4-(3-((cyclobutylmethyl)amino)piperidin-1-yl)phenyl)oxetan-3-yl)-1H-1,2,3-triazol-4-yl)-N,N-dimethylpyridin-3-amine], the half-maximal inhibitory concentration (IC50) was no more than 500 nM with Kasumi-1 cells, no more than 50 nM in experiment [1] and no more than 500 nM in the experiment with Caov-3 cells.

In the case of `FC1(CN[C@@H]2CCCN(c3ccc(C4(n5cc(-c6cncc(C7CC7)c6)nn5)COC4)nc3)C2)CC1` [Compound 332, (R)-1-(6-(3-(4-(5-cyclopropylpyridin-3-yl)-1H-1,2,3-triazol-1-yl)oxetan-3-yl)pyridin-3-yl)-N-((1-fluorocyclopropyl)methyl)piperidin-3-amine], the IC50 in the experiment on Kasumi-1 cells is no more than 500 nM; in experiment [1], no more than 50 nM; in the experiment with Caov-3 cells, no more than 500 nM.

For `c1cc(C2(n3cc(-c4cncc(C5CC5)n4)nn3)COC2)ncc1N1CCC[C@@H](NCC2CC2)C1` [Compound 323, (R)-N-(cyclopropylmethyl)-1-(6-(3-(4-(6-cyclopropylpyrazin-2-yl)-1H-1,2,3-triazol-1-yl)oxetan-3-yl)pyridin-3-yl)piperidin-3-amine], the IC50 with Kasumi-1 cells is no more than 500 nM; in experiment [1], no more than 50 nM; with Caov-3 cells it was no more than 500 nM.

As for `CC(n1cc(-c2cncc(N3CCCC3)n2)nn1)n1ccc(N2CCC[C@@H](NCC3CC3)C2)cc1=O` (single isomer, unassigned) [Compound 180], the IC50 was no more than 500 nM with Kasumi-1 cells, no more than 50 nM in experiment [1] and no more than 500 nM with Caov-3 cells.

For `COc1cc(-c2cn(Cc3ccc(N4CCCC(NC5CC56CCC6)C4)nn3)nn2)c2cn[nH]c2c1` (stereo not drawn) [Compound 025, 1-(6-((4-(6-methoxy-1H-indazol-4-yl)-1H-1,2,3-triazol-1-yl)methyl)pyridazin-3-yl)-N-(spiro[2.3]hexan-1-yl)piperidin-3-amine], the IC50 with Kasumi-1 cells is 500 to 5000 nM; in experiment [1], no more than 50 nM; in the experiment with Caov-3 cells, no more than 500 nM.

As for `COc1cncc(-c2cn(C(C)c3ccc(N4CCC[C@@H](NCC5CCC5)C4)nc3)nn2)c1` (single isomer, unassigned) [Compound 071], the results for the IC50 (in the experiment with Kasumi-1 cells; in experiment [1]; in the experiment on Caov-3 cells) were 500 to 5000 nM, no more than 50 nM and 500 to 5000 nM, respectively.

Take `CC(n1cc(-c2cncc(N3CCN(C)CC3)c2)nn1)n1ccc(N2CCC[C@@H](NCC3CCC3)C2)cc1=O` (single isomer, unassigned) [Compound 168]: the IC50 in the experiment on Kasumi-1 cells was 500 to 5000 nM; in experiment [1] it was no more than 50 nM; in the experiment on Caov-3 cells it was no more than 500 nM.

Turning to `COC1CN(c2cncc(-c3cn(C(C)n4ccc(N5CCC[C@@H](NCC6CC6)C5)cc4=O)nn3)n2)C1` (single isomer, unassigned) [Compound 246], the IC50 in the experiment on Kasumi-1 cells was no more than 500 nM; in experiment [1], no more than 50 nM; with Caov-3 cells, no more than 500 nM.

In the case of `COc1cc(-c2cn(Cc3ccc(N4CCC[C@@H](NCCC(C)(C)C)C4)nn3)nn2)c2cn[nH]c2c1` [Compound 024, (R)-N-(3,3-dimethylbutyl)-1-(6-((4-(6-methoxy-1H-indazol-4-yl)-1H-1,2,3-triazol-1-yl)methyl)pyridazin-3-yl)piperidin-3-amine], the IC50 was greater than 5000 nM with Kasumi-1 cells, no more than 50 nM in experiment [1] and greater than 5000 nM with Caov-3 cells.

For `CC(NC(=O)c1cc(=O)n2ccccc2n1)c1ccc(N2CCC[C@@H](NCC3CCC3)C2)nn1` (single isomer, unassigned) [Compound 051], the half-maximal inhibitory concentration (IC50) in the experiment on Kasumi-1 cells was greater than 5000 nM; in experiment [1] it was no more than 50 nM; with Caov-3 cells, 500 to 5000 nM.

For the compound `O=C(Nc1cc(=O)n2ccccc2n1)C1(c2ccc(N3CCC[C@@H](NCC4(C(F)(F)F)CC4)C3)cn2)COC1` [Compound 328, (R)-N-(4-oxo-4H-pyrido[1,2-a]pyrimidin-2-yl)-3-(5-(3-(((1-(trifluoromethyl)cyclopropyl)methyl)amino)piperidin-1-yl)pyridin-2-yl)oxetane-3-carboxamide], the values for the IC50 (with Kasumi-1 cells; in experiment [1]; in the experiment with Caov-3 cells) were 500 to 5000 nM, no more than 50 nM and no more than 500 nM, respectively.

With `O=C(Nc1cncc(N2CCCC2)n1)C1(c2ccc(N3CCC[C@@H](NCC4CC4)C3)cn2)COC1` [Compound 248, (R)-3-(5-(3-((cyclopropylmethyl)amino)piperidin-1-yl)pyridin-2-yl)-N-(6-(pyrrolidin-1-yl)pyrazin-2-yl)oxetane-3-carboxamide], the values for the 50% inhibitory concentration (IC50) (with Kasumi-1 cells; in experiment [1]; in the experiment with Caov-3 cells) were no more than 500 nM, no more than 50 nM and no more than 500 nM, respectively.

As to `COc1cncc(-c2ncc(C(C)c3ccc(N4CCC[C@@H](NCC5CCC5)C4)cn3)s2)c1` (single isomer, unassigned) [Compound 181], the IC50 with Kasumi-1 cells is 500 to 5000 nM; in experiment [1], no more than 50 nM; in the experiment on Caov-3 cells it was 500 to 5000 nM.

`c1cc(Cn2cc(-c3cncc(N4CCCC4)n3)nn2)ncc1N1CCC[C@@H](NCC2CCC2)C1` [Compound 282, (R)-N-(cyclobutylmethyl)-1-(6-((4-(6-(pyrrolidin-1-yl)pyrazin-2-yl)-1H-1,2,3-triazol-1-yl)methyl)pyridin-3-yl)piperidin-3-amine]: the results for the IC50 (in the experiment with Kasumi-1 cells; in experiment [1]; with Caov-3 cells) were no more than 500 nM, no more than 50 nM and no more than 500 nM, respectively.

`CC(n1cnc(-c2cncc(N(C)C)n2)c1)n1ccc(N2CCC[C@@H](NCC3CC3)C2)cc1=O` (single isomer, unassigned) [Compound 229]: the IC50 is no more than 500 nM in the experiment with Kasumi-1 cells, no more than 50 nM in experiment [1] and no more than 500 nM in the experiment on Caov-3 cells.

Take `CC(n1cc(-c2cncc(N3CCCCC3)c2)nn1)n1ccc(N2CCC[C@@H](NCC3CCC3)C2)cc1=O` (single isomer, unassigned) [Compound 178]: the values for the IC50 (in the experiment on Kasumi-1 cells; in experiment [1]; in the experiment with Caov-3 cells) were no more than 500 nM, no more than 50 nM and no more than 500 nM, respectively.

Regarding `COc1cncc(-c2cn(C(C)c3ccc(N4CCC[C@@H](NCC5CCC5)C4)nn3)cn2)c1` (stereo partly drawn) [Compound 182, (3R)—N-(cyclobutylmethyl)-1-(6-(1-(4-(5-methoxypyridin-3-yl)-1H-imidazol-1-yl)ethyl)pyridazin-3-yl)piperidin-3-amine], the figures for the IC50 (in the experiment on Kasumi-1 cells; in experiment [1]; in the experiment on Caov-3 cells) were 500 to 5000 nM, no more than 50 nM and no more than 500 nM, respectively.

As for `COc1cncc(-c2cn(C(C)n3ccc(N4CCC[C@@H](NCC5CC5)C4)cc3=O)nn2)c1` (single isomer, unassigned) [Compound 232], the IC50 is no more than 500 nM in the experiment with Kasumi-1 cells, no more than 50 nM in experiment [1] and no more than 500 nM with Caov-3 cells.

Turning to `CC(c1nnc(-c2cncc(N(C)C)n2)s1)n1ccc(N2CCC[C@@H](NCC3CC3)C2)cc1=O` (stereo partly drawn) [Compound 231, 4-((R)-3-((cyclopropylmethyl)amino)piperidin-1-yl)-1-(1-(5-(6-(dimethylamino)pyrazin-2-yl)-1,3,4-thiadiazol-2-yl)ethyl)pyridin-2(1H)-one], the results for the half-maximal inhibitory concentration (IC50) (with Kasumi-1 cells; in experiment [1]; in the experiment with Caov-3 cells) were no more than 500 nM, no more than 50 nM and no more than 500 nM, respectively.
